Test results as given in patent US11795460B2, “Compositions and methods for TTR gene editing and treating ATTR amyloidosis” (Intellia Therapeutics, Inc., priority 2017, dated 2023).

What follows are sequences tested on TTR (assay: TTR editing in HUH7 cells transfected with Spy Cas9 mRNA and dgRNAs (Table 5)). Details: HUH7 cells co-transfected with Spy Cas9 mRNA (SEQ ID NO:2) and dgRNAs.
Type: cell-based, human
Protocol: HUH7 cell line. The human hepatocellular carcinoma cell line HUH7 (Japanese Collection of Research Bioresources Cell Bank, Cat. JCRB0403) was cultured in DMEM media supplemented with 10% fetal bovine serum. Cells were plated on at a density of 15,000 cells/well in a 96-well plate 20 hours prior to transfection. Cells were transfected with Lipofectamine MessengerMAX (ThermoFisher, Cat. LMRNA003) per the manufacturer's protocol. Cells were sequentially transfected with a lipoplex containing Spy Cas9 mRNA (100 ng), MessengerMAX (0.3 μL/well) and OptiMem followed by a separate lipoplex containing individual crRNA (25 nM), tracer RNA (25 nM), MessengerMAX (0.3 μL/well) and OptiMem.
Transfected cells were harvested post-transfection at 24, 48, or 72 hours. The genomic DNA was extracted from each well of a 96-well plate using 50 μL/well BuccalAmp DNA Extraction solution (Epicentre, Cat. QE09050) per manufacturer's protocol. All DNA samples were subjected to PCR and subsequent NGS analyses, as described herein.
To quantitatively determine the efficiency of editing at the target location in the genome, sequencing was utilized to identify the presence of insertions and deletions introduced by gene editing.
Primers were designed around the target site within the gene of interest (e.g. TTR), and the genomic area of interest was amplified.
Additional PCR was performed per the manufacturer's protocols (Illumina) to add chemistry for sequencing. The amplicons were sequenced on an Illumina MiSeq instrument. The reads were aligned to a reference genome (e.g., the human reference genome (hg38), the cynomologus reference genome (mf5), the rat reference genome (rn6), or the mouse reference genome (mm10)) after eliminating those having low quality scores. The resulting files containing the reads were mapped to the reference genome (BAM files), where reads that overlapped the target region of interest were selected and the number of wild type reads versus the number of reads which contain an insertion, substitution, or deletion was calculated.
The editing percentage (e.g., the “editing efficiency” or “percent editing” or “indel frequency”) is defined as the total number of sequence reads with insertions/deletions (“indels”) or substitutions over the total number of sequence reads, including wild type.
Guides in dgRNA format targeting human TTR and the cynomologus matched sequences were delivered to HEK293 Cas9, HUH7 and HepG2 cell lines, as well as primary human hepatocytes and primary cynomolgus monkey hepatocytes as described in Example 1. Percent editing was determined for crRNAs comprising each guide sequence across each cell type and the guide sequences were then rank ordered based on highest % edit. The screening data for the guide sequences in Table 1 in all five cell lines are listed below (Table 4 through 11).
“AAAGGCUGCUGAUGACACCU (tested as dual guide RNA, chemistry not given here) [CR003353]” was tested, and the “Avg % Deletion” value was 62.87%, the “Avg % Edit” value was 69.18% and the “Avg % Insert” value was 7.73%. In the case of “AAAGUUCUAGAUGCUGUCCG (tested as dual guide RNA, chemistry not given here) [CR003346]”, the “Avg % Deletion” value was 6.97%, the “Avg % Edit” value was 18.07% and the “Avg % Insert” value was 13.17%. “AAAUAGACACCAAAUCUUAC (tested as dual guide RNA, chemistry not given here) [CR003366]” was tested, and the “Avg % Deletion” value was 50.32%, the “Avg % Edit” value was 69.98% and the “Avg % Insert” value was 20.77%. For “AAGUGCCUUCCAGUAAGAUU (tested as dual guide RNA, chemistry not given here) [CR003368]”, the “Avg % Deletion” value was 29.69%, the “Avg % Edit” value was 31.57% and the “Avg % Insert” value was 3.08%. In the case of “AAUAGGAGUAGGGGCUCAGC (tested as dual guide RNA, chemistry not given here) [CR003384]”, the “Avg % Deletion” value was 16.29%, the “Avg % Edit” value was 17.03% and the “Avg % Insert” value was 0.84%. With “ACACAAAUACCAGUCCAGCA (tested as dual guide RNA, chemistry not given here) [CR003339]” the “Avg % Deletion” value was 20.13%, the “Avg % Edit” value was 79.97% and the “Avg % Insert” value was 60.55%. For “ACCUCUGCAUGCUCAUGGAA (tested as dual guide RNA, chemistry not given here) [CR003371]”, the “Avg % Deletion” value was 35.65%, the “Avg % Edit” value was 40.47% and the “Avg % Insert” value was 6.07%. For “ACUGAGGAGGAAUUUGUAGA (tested as dual guide RNA, chemistry not given here) [CR003363]”, the “Avg % Deletion” value was 23.78%, the “Avg % Edit” value was 41.01% and the “Avg % Insert” value was 17.83%. For “AGACACCAAAUCUUACUGGA (tested as dual guide RNA, chemistry not given here) [CR003367]”, the “Avg % Deletion” value was 33.48%, the “Avg % Edit” value was 66.29% and the “Avg % Insert” value was 33.62%. “AGCCUUUCUGAACACAUGCA (tested as dual guide RNA, chemistry not given here) [CR003351]” was tested, and the “Avg % Deletion” value was 27.49%, the “Avg % Edit” value was 63.51% and the “Avg % Insert” value was 36.87%. With “AGGCAGUCCUGCCAUCAAUG (tested as dual guide RNA, chemistry not given here) [CR003348]” the “Avg % Deletion” value was 22.71%, the “Avg % Edit” value was 57.14% and the “Avg % Insert” value was 36.08%. For “AGUCCCUCAUUCCUUGGGAU (tested as dual guide RNA, chemistry not given here) [CR003392]”, the “Avg % Deletion” value was 26.98%, the “Avg % Edit” value was 28.37% and the “Avg % Insert” value was 1.93%. In the case of “AGUGAGUCUGGAGAGCUGCA (tested as dual guide RNA, chemistry not given here) [CR003359]”, the “Avg % Deletion” value was 45.97%, the “Avg % Edit” value was 66.75% and the “Avg % Insert” value was 21.73%. For “AUACCAGUCCAGCAAGGCAG (tested as dual guide RNA, chemistry not given here) [CR003338]”, the “Avg % Deletion” value was 67.06%, the “Avg % Edit” value was 75.64% and the “Avg % Insert” value was 10.22%. In the case of “AUAGGAGUAGGGGCUCAGCA (tested as dual guide RNA, chemistry not given here) [CR003383]”, the “Avg % Deletion” value was 41.19%, the “Avg % Edit” value was 42.89% and the “Avg % Insert” value was 2.14%. For “AUGCAGCUCUCCAGACUCAC (tested as dual guide RNA, chemistry not given here) [CR003358]”, the “Avg % Deletion” value was 26.60%, the “Avg % Edit” value was 36.50% and the “Avg % Insert” value was 10.53%. For “AUUGGUGACGACAGCCGUGG (tested as dual guide RNA, chemistry not given here) [CR003389]”, the “Avg % Deletion” value was 50.90%, the “Avg % Edit” value was 62.32% and the “Avg % Insert” value was 13.19%. With “CAGAGGACACUUGGAUUCAC (tested as dual guide RNA, chemistry not given here) [CR003343]” the “Avg % Deletion” value was 66.97%, the “Avg % Edit” value was 76.13% and the “Avg % Insert” value was 9.58%. In the case of “CAUUGAUGGCAGGACUGCCU (tested as dual guide RNA, chemistry not given here) [CR003347]”, the “Avg % Deletion” value was 30.79%, the “Avg % Edit” value was 32.16% and the “Avg % Insert” value was 1.64%. In the case of “CCAGUCCAGCAAGGCAGAGG (tested as dual guide RNA, chemistry not given here) [CR003337]”, the “Avg % Deletion” value was 48.95%, the “Avg % Edit” value was 55.72% and the “Avg % Insert” value was 8.34%. With “CCCAGAGGCAAAUGGCUCCC (tested as dual guide RNA, chemistry not given here) [CR003355]” the “Avg % Deletion” value was 30.31%, the “Avg % Edit” value was 38.83% and the “Avg % Insert” value was 9.40%. With “CCGUGGUGGAAUAGGAGUAG (tested as dual guide RNA, chemistry not given here) [CR003386]” the “Avg % Deletion” value was 69.34%, the “Avg % Edit” value was 69.40% and the “Avg % Insert” value was 0.53%. In the case of “CCUCCUCUGCCUUGCUGGAC (tested as dual guide RNA, chemistry not given here) [CR003336]”, the “Avg % Deletion” value was 26.56%, the “Avg % Edit” value was 30.05% and the “Avg % Insert” value was 4.14%. In the case of “CCUCUGCAUGCUCAUGGAAU (tested as dual guide RNA, chemistry not given here) [CR003370]”, the “Avg % Deletion” value was 35.55%, the “Avg % Edit” value was 39.16% and the “Avg % Insert” value was 4.83%. With “CUCUGCAUGCUCAUGGAAUG (tested as dual guide RNA, chemistry not given here) [CR003369]” the “Avg % Deletion” value was 17.38%, the “Avg % Edit” value was 24.19% and the “Avg % Insert” value was 7.12%. “CUGAGGAGGAAUUUGUAGAA (tested as dual guide RNA, chemistry not given here) [CR003364]” was tested, and the “Avg % Deletion” value was 23.03%, the “Avg % Edit” value was 47.13% and the “Avg % Insert” value was 24.68%. With “CUGCUCCUCCUCUGCCUUGC (tested as dual guide RNA, chemistry not given here) [CR003335]” the “Avg % Deletion” value was 27.57%, the “Avg % Edit” value was 31.95% and the “Avg % Insert” value was 4.62%. With “CUGGUAUUUGUGUCUGAGGC (tested as dual guide RNA, chemistry not given here) [CR003341]” the “Avg % Deletion” value was 13.20%, the “Avg % Edit” value was 20.58% and the “Avg % Insert” value was 7.78%. “CUUCUCUACACCCAGGGCAC (tested as dual guide RNA, chemistry not given here) [CR003342]” was tested, and the “Avg % Deletion” value was 44.66%, the “Avg % Edit” value was 45.14% and the “Avg % Insert” value was 1.23%. For “GAAAGGCUGCUGAUGACACC (tested as dual guide RNA, chemistry not given here) [CR003352]”, the “Avg % Deletion” value was 32.79%, the “Avg % Edit” value was 39.68% and the “Avg % Insert” value was 7.62%. With “GACGACAGCCGUGGUGGAAU (tested as dual guide RNA, chemistry not given here) [CR003388]” the “Avg % Deletion” value was 56.45%, the “Avg % Edit” value was 59.48% and the “Avg % Insert” value was 3.88%. With “GCAACUUACCCAGAGGCAAA (tested as dual guide RNA, chemistry not given here) [CR003356]” the “Avg % Deletion” value was 31.31%, the “Avg % Edit” value was 49.63% and the “Avg % Insert” value was 18.98%. For “GCAGGGCGGCAAUGGUGUAG (tested as dual guide RNA, chemistry not given here) [CR003380]”, the “Avg % Deletion” value was 29.29%, the “Avg % Edit” value was 31.76% and the “Avg % Insert” value was 3.29%.
